These are literature values, as cited in patent publication US9439853B2, “Form of administration of enkephalinase inhibitor” (BIOPROJET, priority 2010, dated 2016).

For the data set the following is noted: for ondansetron the water phase of the suspension.

On to `CC(=O)SCC(Cc1ccccc1)C(=O)NCC(=O)OCc1ccccc1` (centres unmarked) [Racecadotril], for which the solubility in water entry was “insoluble in water”.
For `Cc1nccn1CC1CCc2c(c3ccccc3n2C)C1=O` (centres unmarked) [ondansetron], the solubility in water result is listed as “soluble in the water phase of the suspension”.
